Results reported in patent publication US20230331803A1, “CO-AGONISTS OF THE GLP-1 AND AMYLIN RECEPTORS” (priority 2020, published 2023).
Read-outs that look alike come from different tables or passages of the source. Starred links: 1 amine or outer side, 2 acyl side, 3 side chain; linkers in the order of their positions; H or OH if unused. Non-standard residues stand in square brackets, D forms with d. Groups on a side chain read outwards from the residue. *: point of attachment. Decanoyl(10-(4-HOOC-PhO)) = O=C(O)c1ccc(OCCCCCCCCCC(=O)*)cc1; C20 diacid = O=C(O)CCCCCCCCCCCCCCCCCCC(=O)*; C18 diacid = O=C(O)CCCCCCCCCCCCCCCCC(=O)*; C16 diacid = O=C(O)CCCCCCCCCCCCCCC(=O)*; γGlu = O=C(O)[C@H](CCC(=O)[*:2])N[*:1]; εLys = N[C@@H](CCCCN[*:1])C(=O)[*:2]; AEEA = NCCOCCOCC(=O)O; Aib = CC(C)(N)C(=O)O

Assays:
human GLP-1 receptor = molecular target: T1, human GLP-1 receptor (Homo sapiens, UniProt P43220); experiment: Human GLP-1 receptor in vitro potency assay (CRE-luciferase reporter, BHK cells); format: cell-based
T1 construct: expressed in transfected cells; host or cells: BHK (Baby Hamster Kidney) cells, clone BHK 467-12A KZ-10, stably transfected, with CRE-luciferase reporter
T1 sequence (P43220 24-463): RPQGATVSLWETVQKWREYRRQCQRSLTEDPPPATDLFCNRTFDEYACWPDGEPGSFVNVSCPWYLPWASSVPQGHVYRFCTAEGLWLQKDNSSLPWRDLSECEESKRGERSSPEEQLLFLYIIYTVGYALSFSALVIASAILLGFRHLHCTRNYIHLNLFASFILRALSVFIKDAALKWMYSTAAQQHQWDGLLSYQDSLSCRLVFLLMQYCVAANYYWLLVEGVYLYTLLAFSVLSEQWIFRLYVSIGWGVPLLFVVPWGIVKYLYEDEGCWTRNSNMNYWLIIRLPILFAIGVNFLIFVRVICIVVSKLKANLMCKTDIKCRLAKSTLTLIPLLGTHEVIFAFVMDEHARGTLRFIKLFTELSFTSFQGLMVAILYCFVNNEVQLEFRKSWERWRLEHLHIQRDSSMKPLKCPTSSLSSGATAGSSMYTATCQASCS
Method: It is thus possible to measure GLP-1 receptor activity using a CRE-luciferase reporter gene introduced into Baby Hamster Kidney (BHK) cells co-expressing the GLP-1 receptor.
Cells were aliquoted and stored at -180° C. until use.
Plates were sealed and incubated at room temperature with gentle shaking for 30 minutes while protected from light. Luminescence was detected on a luminescence plate reader e.g. a Synergy 2 (BioTek).

[1] = molecular target: T2, human amylin receptor (hAmyR3) (Homo sapiens, UniProt O60896+P30988); experiment: Human amylin receptor in vitro potency assay (CRE-luciferase reporter, BHK cells); format: cell-based;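 also: BHK cells expressing human calcitonin receptor plus RAMP3 (amylin-3 receptor) with a CRE-luciferase reporter, agonist activity read as luminescence from cAMP-driven transcription, 7-point serial dilutions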
T2 construct: host or cells: BHK cells (Hollex-1 line: human calcitonin receptor (a) + CRE-Luc), further transfected with human RAMP3
T2 sequence (P30988 25-474): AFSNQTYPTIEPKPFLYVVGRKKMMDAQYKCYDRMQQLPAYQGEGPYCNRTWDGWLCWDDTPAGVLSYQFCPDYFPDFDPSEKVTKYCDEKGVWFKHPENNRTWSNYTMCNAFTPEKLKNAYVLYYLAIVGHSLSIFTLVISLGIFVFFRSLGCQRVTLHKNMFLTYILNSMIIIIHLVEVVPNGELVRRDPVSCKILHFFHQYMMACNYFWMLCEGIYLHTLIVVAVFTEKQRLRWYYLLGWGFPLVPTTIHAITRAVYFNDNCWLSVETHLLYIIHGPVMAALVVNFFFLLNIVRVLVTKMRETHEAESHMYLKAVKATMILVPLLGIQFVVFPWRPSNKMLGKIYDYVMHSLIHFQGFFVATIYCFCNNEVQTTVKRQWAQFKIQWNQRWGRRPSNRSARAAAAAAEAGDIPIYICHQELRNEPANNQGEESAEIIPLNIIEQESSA
T2 sequence (O60896 24-148): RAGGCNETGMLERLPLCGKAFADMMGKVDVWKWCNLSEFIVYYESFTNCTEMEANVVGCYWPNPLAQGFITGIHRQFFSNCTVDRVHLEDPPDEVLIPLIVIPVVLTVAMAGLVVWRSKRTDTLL

[2] = Pharmacokinetic studies in Beagle dogs after oral administration of SNAC-based tablets; format: in vivo
Method: To be able to evaluate oral exposure following tablet dosing, tablet compositions comprising the test substance and SNAC (sodium N-(8-(2-hydroxybenzoyl)amino)caprylate) were prepared by mixing test substance with roller compacted SNAC and magnesium stearate as, e.g., described in WO 2019/149880. The amount of SNAC in the tablet composition was 100-300 mg, the amount of magnesium stearate in the tablet composition was 7.7 mg, and the target amount of each test substance in the tablet composition was 3-4 mg.
Pharmacokinetic (PK) studies in Beagle dogs were conducted to determine the exposure of the GLP-1 receptor-amylin receptor co-agonist after peroral administration.
For the pharmacokinetic studies male Beagle dogs were used, 2-7, or 1 to 5, years of age and weighing approximately 10-15, such as 10-12, kg at the start of the studies. The dogs were group housed in pens (12 hours light: 12 hours dark),and fed individually and restrictedly once daily with Royal Canin Medium Adult dog (Royal Canin Products, China Branch, or Brogaarden A/S, Denmark). Exercise and group social were permitted daily, whenever possible. The dogs were used for repeated pharmacokinetic studies with a suitable wash-out period between successive dosing. An appropriate acclimatisation period was given prior to initiation of the first pharmacokinetic study. All handling, dosing and blood sampling of the animals were performed by trained and skilled staff. Before the studies the dogs were fasted overnight and from 0 to 4 h after dosing. Besides, the dogs were restricted to water 1 hour before dosing until 4 hours after dosing, but otherwise have ad libitum access to water during the whole period.
The tablets used for the p.o. studies described herein were immediate release SNAC-based tablets dosed orally.
The tablets were administered in the following manner: 10 min prior to tablet administration the dogs may be dosed subcutaneously with approximately 3 nmol/kg of SEQ ID NO: 237, tablets were placed in the back of the mouth of the dog to prevent chewing. The mouth was then closed, and 10 mL of tap water was given by a syringe or gavage to facilitate swallowing of the tablet.
Blood was sampled at predefined time points for up till 240 hours, such as up till 10 hr, post dosing to adequately cover the full plasma concentration-time absorption profile of the GLP-1 agonist.
For each blood sampling time point approximately 0.8 mL of whole blood was collected in a 1.5 mL EDTA coated tube, and the tube was gently turned to allowing mixing of the sample with the EDTA. Blood samples (for example 0.8 mL) were collected in EDTA buffer (8 mM) and then centrifuged at 4° C. and 2000 G for 10 minutes. Plasma was pipetted into Micronic tubes on dry ice, and kept at -20° C. until analysis.
Blood samples were taken as appropriate, for example from a venflon in the cephalic vein in the front leg for the first 2 hours and then with syringe from the jugular vein for the rest of the time points (the first few drops were allowed to drain from the venflon to avoid heparin saline from the venflon in the sample).
Plasma concentration of the GLP-1 receptor-amylin receptor co-agonists were determined using LCMS. Individual plasma concentration-time profiles were analysed by a non-compartmental model in WinNonlin v. 5.0 or Phoenix v. 6.2 or 6.3 (Pharsight Inc., Mountain View, CA, USA), or other relevant software for PK analysis.
The individual plasma concentration-time profiles were analysed by non-compartmental analysis (NCA).

Sprague Dawley (SD) rats = experiment: Acute food intake in ad libitum fed rats after a single subcutaneous administration; format: in vivo, rat; conditions: Table 6a, rat, single administration;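 also: food intake monitored in the HM2 system, three rats per cage kept on a reversed light cycle, with food and water freely available after the subcutaneous dose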
[3] = dogs, oral administration (tablet)
[4] = male, Beagle, dog, in vivo, dogs, oral administration (tablet), read-out: Tmax
[5] = male, Beagle, dog, in vivo, dogs, oral administration (tablet), read-out: T½ (converted)
[6] = Table 4a, BHK cells expressing human GLP-1R, CRE-Luc, 3 hours, read-out: Human GLP-1R potency [EC50 (pM)]
[7] = Table 4a, BHK hAmyR3/CRE-Luc cells, 3 hours, read-out: Human AmyR3 potency [EC50 (pM)]
[8] = male, Beagle, dog, in vivo, po, Tmax (hr)
[9] = male, Beagle, dog, in vivo, po, T½ (hr)

Row | Molecule | EC50 (human GLP-1 receptor) | EC50 [1] | AUC/D [2, 3] | Cmax/D [2, 3] | Tmax [2, 4] | half-life [2, 5] | Food intake relative to vehicle (%) 0-24 hr, 10 nmol/kg (Sprague Dawley (SD) rats) | Food intake relative to vehicle (%) 24-48 hr, 10 nmol/kg (Sprague Dawley (SD) rats) | EC50 (human GLP-1 receptor; [6]) | EC50 [1, 7] | T½ ([2]; male, Beagle, dog, in vivo, po) | Tmax [2, 8] | half-life [2, 9] | AUC/D ([2]; dog, in vivo, po) | Cmax/D ([2]; dog, in vivo, po) | Tmax [2, 3] | T½ [2, 3]
1 | CC[C@H](C)[C@H](NC(=O)[C@H](Cc1ccccc1)NC(=O)[C@H](CCC(=O)O)NC(=O)[C@H](CCCNC(=N)N)NC(=O)[C@H](C)NC(=O)[C@H](C)NC(=O)[C@H](CCC(N)=O)NC(=O)[C@H](CCC(=O)O)NC(=O)[C@H](CCC(=O)O)NC(=O)[C@H](CC(C)C)NC(=O)[C@H](Cc1ccc(O)cc1)NC(=O)[C@H](CO)NC(=O)[C@H](CO)NC(=O)[C@H](CCCCNC(=O)COCCOCCNC(=O)COCCOCCNC(=O)CC[C@H](NC(=O)[C@H]1CC[C@H](CNC(=O)CCCCCCCCCCCCCCCCCCC(=O)O)CC1)C(=O)O)NC(=O)[C@H](CC(=O)O)NC(=O)[C@H](CO)NC(=O)[C@@H](NC(=O)[C@H](Cc1ccccc1)NC(=O)[C@@H](NC(=O)CNC(=O)[C@H](CCC(=O)O)NC(=O)C(C)(C)NC(=O)[C@@H](N)Cc1c[nH]cn1)[C@@H](C)O)[C@@H](C)O)C(=O)N[C@@H](CCC(=O)O)C(=O)N[C@@H](Cc1c[nH]c2ccccc12)C(=O)N[C@@H](CC(C)C)C(=O)N[C@H](C(=O)N[C@@H](CCCNC(=N)N)C(=O)NCC(=O)N[C@@H](CCCNC(=N)N)C(=O)NCC(=O)N[C@@H](CCC(=O)O)C(=O)N[C@@H](C)C(=O)N[C@@H](CO)C(=O)N[C@@H](CCC(=O)O)C(=O)N[C@@H](CC(C)C)C(=O)N[C@@H](CO)C(=O)N[C@H](C(=O)N[C@@H](C)C(=O)N[C@@H](C)C(=O)N[C@@H](CC(C)C)C(=O)NCC(=O)N[C@@H](CCCNC(=N)N)C(=O)N[C@@H](CC(C)C)C(=O)N[C@@H](CO)C(=O)N[C@@H](C)C(=O)N[C@@H](CCC(=O)O)C(=O)N[C@@H](CC(C)C)C(=O)N[C@@H](Cc1c[nH]cn1)C(=O)N[C@@H](CCC(=O)O)C(=O)N[C@@H](CC(C)C)C(=O)N[C@@H](C)C(=O)N[C@H](C(=O)N[C@@H](CC(C)C)C(=O)N1CCC[C@H]1C(=O)N[C@@H](CCCNC(=N)N)C(=O)N[C@H](C(=O)N[C@@H](CCC(=O)O)C(=O)N[C@H](C(=O)NCC(=O)N[C@@H](CO)C(=O)NCC(=O)N[C@@H](CO)C(=O)N1CCC[C@H]1C(N)=O)[C@@H](C)O)[C@@H](C)O)[C@@H](C)O)[C@@H](C)O)C(C)C [Compound 0440] | 5.7 pM | 10.4 pM | 5.78 kg·h/L | 0.29 kg/L | 1.8 h | 32 h | 81% | 77% |  |  |  |  |  |  |  |  | 
2 | H-HWEGTFTSDVSSYLEEQAARK([AEEA-AEEA-γGlu-Decanoyl(10-(4-HOOC-PhO))])FIEWLVRGRGEGGGGGASELSTAALGRLSAELHELK([AEEA-AEEA-γGlu-Decanoyl(10-(4-HOOC-PhO))])TLPRTETGSGSP-NH2 [Compound 0232] | 6.4 pM | 74.2 pM | 2.00 kg·h/L | 0.51 kg/L | 0.8 h | 4 h | 61% | 95% |  |  |  |  |  |  |  |  | 
3 | H-HWEGTFTSDVSSYLEEQAARK([AEEA-AEEA-γGlu-Decanoyl(10-(4-HOOC-PhO))])FIEWLVRGRGEGGGGGASELSTAALGRLSK([AEEA-AEEA-γGlu-Decanoyl(10-(4-HOOC-PhO))])ELHELATLPRTETGSGSP-NH2 [Compound 0231] | 5.6 pM | 68 pM | 0.83 kg·h/L | 0.27 kg/L | 1 h | 6 h | 27% | 76% |  |  |  |  |  |  |  |  | 
4 | H-H[Aib]EGTFTSDVSK([AEEA-AEEA-γGlu-C16 diacid])YLEEQAARK([AEEA-AEEA-γGlu-C16 diacid])FIAWLVRGRGGGGGEASELSTAALGRLSAELHELATLPRTETGSGSP-NH2 [Compound 0516] |  |  |  |  |  |  | 87% | 82% | 3.3 pM | 8.9 pM | 103 h | 2 h | 99 h |  |  |  | 
5 | H-H[Aib]EGTFTSDVSK([AEEA-AEEA-γGlu-C18 diacid])YLEEQAAREFIAWLVRGRGGGGGEASELSTAALGRLSAELHELATLPRTETGSGSP-NH2 [Compound 0640] |  |  |  |  |  |  | 28% | 66% | 2.3 pM | 6 pM |  | 1.5 h | 29 h | 7.57 kg·h/L | 0.37 kg/L |  | 
6 | H-Aib-EGTFTSDVS-K([2-[2-[2-[[2-[2-[2-[[(4S)-4-Carboxy-4-[[4-[(19-Carboxynonadecanoylamino)Methyl]Cyclohexanecarbonyl]Amino]Butanoyl]Amino]Ethoxy]Ethoxy]Acetyl]Amino]Ethoxy]Ethoxy]Acetyl])-YLEEQAAREFIA … (peptide) peptide: H-H[Aib]EGTFTSDVSK([AEEA-AEEA-γGlu-4‑(aminomethyl)cyclohexanecarbonyl-C20 diacid])YLEEQAAREFIAWLVRGRGGGGGEASELSTAALGRLSAELHELATLPRTETGSGSP-NH2 |  |  | 11.10 kg·h/L | 0.45 kg/L |  |  | 50% | 45% |  |  |  |  |  |  |  | 2.0 h | 27 h
7 | HWEGTFTSDVSSYLEEQAAR-K([2-[2-[2-[[2-[2-[2-[[(4S)-4-Carboxy-4-[[4-[(19-Carboxynonadecanoylamino)Methyl]Cyclohexanecarbonyl]Amino]Butanoyl]Amino]Ethoxy]Ethoxy]Acetyl]Amino]Ethoxy]Ethoxy]Acetyl])-FIEWLVR … (peptide) peptide: HWEGTFTSDVSSYLEEQAARK([AEEA-AEEA-γGlu-4‑(aminomethyl)cyclohexanecarbonyl-C20 diacid])FIEWLVRGRGEGGGGGASELSTAALGRLSAELHELATLPRTETGSGSP-NH2 |  |  | 19.54 kg·h/L | 0.36 kg/L |  |  | 71% | 46% |  |  |  |  |  |  |  | 1.8 h | 40 h
8 | H-Aib-EGTFTSDVSSYLEEQAAREFIAWLVRGR-K([(2S)-2-Amino-6-[[2-[2-[2-[[2-[2-[2-[[(4S)-4-Carboxy-4-[[4-[(19-Carboxynonadecanoylamino)Methyl]Cyclohexanecarbonyl]Amino]Butanoyl]Amino]Ethoxy]Ethoxy]Acetyl]Amino … (peptide) peptide: H[Aib]EGTFTSDVSSYLEEQAAREFIAWLVRGRK([εLys-AEEA-AEEA-γGlu-4‑(aminomethyl)cyclohexanecarbonyl-C20 diacid])GGGGEASELSTAALGRLSAELHELATLPRTETGSGSP-NH2 |  |  | 6.53 kg·h/L | 0.14 kg/L |  |  | 47% | 44% |  |  |  |  |  |  |  | 2.0 h | 23 h
9 | H-Aib-EGTFTSDVSSYLEEQAAREFIAWLVRGRP-K([2-[2-[2-[[2-[2-[2-[[(4S)-4-Carboxy-4-[[4-[(19-Carboxynonadecanoylamino)Methyl]Cyclohexanecarbonyl]Amino]Butanoyl]Amino]Ethoxy]Ethoxy]Acetyl]Amino]Ethoxy]Ethoxy]A … (peptide) peptide: H[Aib]EGTFTSDVSSYLEEQAAREFIAWLVRGRPK([AEEA-AEEA-γGlu-4‑(aminomethyl)cyclohexanecarbonyl-C20 diacid])GGGGEASELSTAALGRLSAELHELATLPRTETGSGSP-NH2 |  |  | 3.25 kg·h/L | 0.12 kg/L |  |  | 73% | 53% |  |  |  |  |  |  |  | 3.0 h | 25 h
